Reference: article PMC6362118, “Pharmacophore-guided discovery of CDC25 inhibitors causing cell cycle arrest and tumor regression” (Scientific Reports, 2019)

Experiments:
[1] = tested on: HeLa cells; assay: Cell viability assay on HeLa cells; assay type: cell-based; conditions: Homo sapiens, 48h treatment
Protocol: 75 Cell culture - Wild-type HeLa and Kyoto HeLa cells stably expressing mCherry-H2B
76 were maintained in DMEM+L-Glutamine (Gibco, Life Technologies, USA)
77 supplemented with 5% fetal calf serum (FCS) (Gibco) and penicillin-streptomycin (100
78 U/ml - 100 µg/ml) (Gibco). […]
87 Cell viability assays - Compounds viability upon 48h treatment with the compounds was
88 assessed as described 4. Data were plotted with Prism 7® and analyzed by non-linear
89 regression. Comparison of single curve fitting to all data set within an experiment was
90 performed with the extra sum-of-squares F-test to determine P values. […]

[2] = tested on: PTPRC (CD45); assay: Compound profiling, phosphatase panel (Eurofins); assay type: biochemical; conditions: relative to DMSO
Text: (§1) 125 Compound profiling - Selected compounds were profiled against a panel of protein
(§2) 126 phosphatases at Eurofins Pharma Discovery Services Ltd., Dundee, UK.

[3] = tested on: PTPN6 (SHP-1); assay: Compound profiling, phosphatase panel (Eurofins); assay type: biochemical; conditions: relative to DMSO
Text: as §1, §2

[4] = tested on: PTPN7 (HePTP); assay: Compound profiling, phosphatase panel (Eurofins); assay type: biochemical; conditions: relative to DMSO
Text: as §1, §2

[5] = tested on: TMDP (DUSP13); assay: Compound profiling, phosphatase panel (Eurofins); assay type: biochemical; conditions: relative to DMSO
Text: as §1, §2

[6] = tested on: MKP5 (DUSP10); assay: Compound profiling, phosphatase panel (Eurofins); assay type: biochemical; conditions: relative to DMSO
Text: as §1, §2

[7] = tested on: PTPN4 (MEG1); assay: Compound profiling, phosphatase panel (Eurofins); assay type: biochemical; conditions: relative to DMSO
Text: as §1, §2

[8] = tested on: PP1a; assay: Compound profiling, phosphatase panel (Eurofins); assay type: biochemical; conditions: relative to DMSO
Text: as §1, §2

[9] = tested on: PTPN22; assay: Compound profiling, phosphatase panel (Eurofins); assay type: biochemical; conditions: relative to DMSO
Text: as §1, §2

[10] = tested on: PTPN1 (PTP1B); assay: Compound profiling, phosphatase panel (Eurofins); assay type: biochemical; conditions: relative to DMSO
Text: as §1, §2

[11] = tested on: PTPN9 (MEG2); assay: Compound profiling, phosphatase panel (Eurofins); assay type: biochemical; conditions: relative to DMSO
Text: as §1, §2

[12] = tested on: VHR (DUSP3); assay: Compound profiling, phosphatase panel (Eurofins); assay type: biochemical; conditions: relative to DMSO
Text: as §1, §2

[13] = tested on: PTPN11 (SHP-2); assay: Compound profiling, phosphatase panel (Eurofins); assay type: biochemical; conditions: relative to DMSO
Text: as §1, §2

[14] = tested on: PP2A; assay: Compound profiling, phosphatase panel (Eurofins); assay type: biochemical; conditions: relative to DMSO
Text: as §1, §2

[15] = tested on: DUSP22; assay: Compound profiling, phosphatase panel (Eurofins); assay type: biochemical; conditions: relative to DMSO
Text: as §1, §2

[16] = tested on: PTPN2 (TCPTP); assay: Compound profiling, phosphatase panel (Eurofins); assay type: biochemical; conditions: relative to DMSO
Text: as §1, §2

[17] = tested on: Apc/K-Ras intestinal organoids; assay: Growth and differentiation of Apc/K-Ras intestinal organoids; assay type: cell-based, mouse
Protocol: Intestinal crypts were isolated from Apc/K-Ras animals bearing Apc^1638N and villin-driven K-Ras^G12V alleles with slight modifications[36] of a previously described method. Briefly, crypts were isolated and purified, embedded in 50 μl matrigel drops (Corning, 356231) and overlaid with 500 μl organoid medium Advanced DMEM/F12 (Life Technologies, 11320-082) containing 2 mM GlutaMAX (Life Technologies, 35050-061), 10 mM HEPES buffer (Sigma, 83264-100ML-F), 0.5 U/ml Penicillin/Streptomycin (Life Technologies, 15070-063), N2 (Life Technologies, 17502-048), B27 (Life Technologies, 12587-010)]. Organoids were expanded for 5 days in growth factor supplemented medium containing 50 ng/ml mEGF (Life Technologies, PMG8041), 100 ng/ml mNoggin (Peprotech, 250–38) and 500 ng/ml hRSPO1 (R&D, 4645-RS-025). EGF and R-spondin were subsequently removed to select for organoids that had lost the wild-type Apc copy. The medium was changed every 2 days. Established mutant lines were passaged every four days by mechanical disruption with a bent P1000 pipette tip.
34 SUPPLEMENTARY MATERIALS AND METHODS
36 Antibodies and chemicals - The following antibodies were used for Western blot:
37 Rabbit monoclonal antibodies to CDK1-pThr14 (#2543), CDK1-pTyr15 (#9111), Histone
39 Technology (Beverly, MA, USA). Mouse monoclonal antibodies to CDC25A (F-6, sc-
41 from Santa Cruz Biotechnology (Santa Cruz, CA, USA). The mouse monoclonal
42 antibody MPM2 (05-368) was from Upstate (Lake Placid, NY, USA). The mouse
43 monoclonal antibody to the HA tag (HA.11, MMS-101P) was from BioLegend (S. Diego,
44 CA, USA). The rabbit polyclonal antibody to PARP-1 (#227244) was obtained from
45 Abcam. HRP-conjugated anti-mouse and anti-rabbit secondary antibodies were obtained
46 from GE-Healthcare (Otelfingen, Switzerland). HRP-conjugated IgG-k-BP was
47 purchased from Santa Cruz Biotechnology (Santa Cruz, CA, USA).
48 The following antibodies were used for immunofluorescence on a Zeiss LSM 710
49 confocal microscope: mouse monoclonal to beta-catenin (Cl. 14, BD transduction Lab.),
50 rabbit polyclonal to lysozyme (A0099, Dako). […]

SMILES: O=C1C=C(c2ccc(O)cc2O)C(=O)c2c(O)cccc21 [UPD-140, 2-(2′,4′-dihydroxyphenyl)-8-hydroxy-1,4-naphthoquinone]
- IC50 [1]: 1200 nM
- remaining activity (%) ([2]; UPD-140 1.5 µM): 103 ± 2%
- remaining activity (%) ([3]; UPD-140 1.5 µM): 78 ± 2%
- remaining activity (%) ([4]; UPD-140 1.5 µM): 95%
- remaining activity (%) ([5]; UPD-140 1.5 µM): 105 ± 4%
- remaining activity (%) ([6]; UPD-140 1.5 µM): 109%
- remaining activity (%) ([7]; UPD-140 1.5 µM): 87 ± 1%
- remaining activity (%) ([8]; UPD-140 1.5 µM): 89 ± 2%
- remaining activity (%) ([9]; UPD-140 1.5 µM): 99 ± 5%
- remaining activity (%) ([10]; UPD-140 1.5 µM): 95 ± 5%
- remaining activity (%) ([11]; UPD-140 1.5 µM): 89%
- remaining activity (%) ([12]; UPD-140 1.5 µM): 106 ± 4%
- remaining activity (%) ([13]; UPD-140 1.5 µM): 96 ± 2%
- remaining activity (%) ([14]; UPD-140 1.5 µM): 95 ± 2%
- remaining activity (%) ([15]; UPD-140 1.5 µM): 90 ± 4%
- remaining activity (%) ([16]; UPD-140 1.5 µM): 87 ± 8%

SMILES: O=C1C(c2ccc(O)cc2O)=CC(=O)c2c(O)cccc21 [UPD-176, 5-hydroxy-2-(2,4-dihydroxyphenyl)naphthalene-1,4-dione]
- IC50 [1]: 1080 nM
- expression of lysozyme (differentiation marker), confocal immunofluorescence ([17]; 5 μM): augmented expression of lysozyme
- organoid morphology ([17]; 5 μM, 48 h): growing spheroids partially invaginated
- organoid death ([17]; higher doses (data not shown)): massive death

SMILES: COc1cccc(SC2=CC(=O)c3cccc(O)c3C2=O)c1 [UPD-795, 2-(3-methoxyphenylthio)-8-hydroxynaphthalene-1,4-dione]
- remaining activity (%) ([2]; UPD-795 1 µM): 97 ± 2%
- remaining activity (%) ([3]; UPD-795 1 µM): 80 ± 3%
- remaining activity (%) ([4]; UPD-795 1 µM): 87 ± 2%
- remaining activity (%) ([5]; UPD-795 1 µM): 100%
- remaining activity (%) ([6]; UPD-795 1 µM): 107 ± 1%
- remaining activity (%) ([7]; UPD-795 1 µM): 94 ± 1%
- remaining activity (%) ([8]; UPD-795 1 µM): 88 ± 1%
- remaining activity (%) ([9]; UPD-795 1 µM): 98 ± 1%
- remaining activity (%) ([10]; UPD-795 1 µM): 94 ± 7%
- remaining activity (%) ([11]; UPD-795 1 µM): 85 ± 5%
- remaining activity (%) ([12]; UPD-795 1 µM): 108 ± 4%
- remaining activity (%) ([13]; UPD-795 1 µM): 91 ± 14%
- remaining activity (%) ([14]; UPD-795 1 µM): 94 ± 1%
- remaining activity (%) ([15]; UPD-795 1 µM): 92 ± 3%
- remaining activity (%) ([16]; UPD-795 1 µM): 99 ± 2%
